Assay results: US20260158157A1, “COMBINATION OF ANTI-HER3 ANTIBODY-DRUG CONJUGATE AND RASG12C INHIBITOR” (DAIICHI SANKYO COMPANY, LIMITED, priority 2023, published 2026)

Key:
[1] = test system: NCI-H358 cells; assay: Antitumor test (1): NCI-H358 cells subcutaneously transplanted into nude mice; settings: for notable findings such as weight reduction: NCI-H358 xenograft nude mice, HER3-ADC (1) 3 mg/kg iv and/or RASG12C inhibitor 10 mg/kg orally, 3 weeks
Method: Mouse: Female BALB/c nude mice of 5 to 6 week-old (Charles River Laboratories Japan, Inc.) were used in an experiment.
Measurement and calculation formula: In all studies, the long diameter and the short diameter of a tumor were measured with an electronic digital caliper (CD-15CX, Mitutoyo Corporation) twice a week to calculate the tumor volume (mm^3). The calculation formula was as follows: […]
HER3-ADC (1) was diluted with ABS buffer (10 mM acetate buffer (pH 5.5), 5% sorbitol), and the resultant liquid was administered in an amount of 10 mL/kg to the tail vein.
Sotorasib was dissolved in 2% hydroxypropyl methylcellulose and 1% Tween 80, and the resultant liquid was orally administered in an amount of 10 mL/kg. […] NCI-H358 cells, that is, human lung cancer line purchased from ATCC (American Type Culture Collection) were suspended in 50% Matrigel matrix (Invitrogen), and 3×10^6 cells thus obtained were subcutaneously transplanted into a right side portion of the body of each of the female nude mice, and the resultant mice were randomly grouped 13 days after the transplantation (Day 0). HER3-ADC (1) was administered to the tail vein at a dose of 3 mg/kg on Day 0, Day 7, and Day 14. The RASG12C inhibitors were administered at a dose of 10 mg/kg for 3 weeks once a day and five times a week. Groups each given one of these agents, a group given both, and a solvent administration group as a control group were established.

[2] = molecular target: T1, topoisomerase I (Homo sapiens, UniProt P11387); settings: reference: Ogitani Y. et al., Clinical Cancer Research 2016; cited from earlier work
T1 sequence (P11387 1-765): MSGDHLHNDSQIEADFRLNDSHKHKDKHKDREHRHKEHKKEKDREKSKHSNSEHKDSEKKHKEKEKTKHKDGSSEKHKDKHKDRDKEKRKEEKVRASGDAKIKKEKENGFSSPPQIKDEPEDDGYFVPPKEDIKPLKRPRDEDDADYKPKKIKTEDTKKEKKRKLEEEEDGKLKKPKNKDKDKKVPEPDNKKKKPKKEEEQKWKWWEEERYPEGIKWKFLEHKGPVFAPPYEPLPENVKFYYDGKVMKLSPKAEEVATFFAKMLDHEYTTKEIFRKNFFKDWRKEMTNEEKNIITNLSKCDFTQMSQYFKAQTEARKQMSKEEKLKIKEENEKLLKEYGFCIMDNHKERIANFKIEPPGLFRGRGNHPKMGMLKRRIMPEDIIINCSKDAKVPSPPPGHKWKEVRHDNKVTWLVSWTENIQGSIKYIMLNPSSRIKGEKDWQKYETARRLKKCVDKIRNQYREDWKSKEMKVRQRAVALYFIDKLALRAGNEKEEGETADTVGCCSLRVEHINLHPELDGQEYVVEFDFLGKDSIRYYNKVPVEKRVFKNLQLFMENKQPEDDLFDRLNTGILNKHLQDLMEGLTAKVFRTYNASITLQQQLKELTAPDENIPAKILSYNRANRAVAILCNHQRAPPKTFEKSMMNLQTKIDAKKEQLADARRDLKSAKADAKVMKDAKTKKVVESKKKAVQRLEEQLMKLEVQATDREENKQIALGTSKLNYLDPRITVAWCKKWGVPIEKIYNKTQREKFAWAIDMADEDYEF

Compound	notable findings such as weight reduction [1]	tumor growth inhibition (TGI), single administration of RASG12C inhibitor ([1]; NCI-H358 xenograft, female nude mice, 10 mg/kg orally once a day, five times a week for 3 weeks, final day of the test) [%]	topoisomerase I inhibitory effect [2]	tumor growth inhibition (TGI), single administration of HER3-ADC (1) ([1]; NCI-H358 xenograft, female nude mice, 3 mg/kg tail vein on Day 0, Day 7 and Day 14, final day of the test) [%]
C=CC(=O)N1CCN(c2nc(=O)n(-c3c(C)ccnc3C(C)C)c3nc(-c4c(O)cccc4F)c(F)cc23)[C@@H](C)C1 [sotorasib]	anal prolapse	39		
CC[C@@]1(O)C(=O)OCc2c1cc1n(c2=O)Cc2c-1nc1cc(F)c(C)c3c1c2[C@@H](NC(=O)CO)CC3			confirmed to have topoisomerase I inhibitory effect	
HER3-ADC (1): anti-HER3 antibody (heavy chain SEQ ID NO: 1, light chain SEQ ID NO: 2) conjugated to exatecan-derivative drug-linker via thioether bond; average drug-to-antibody ratio 7.6	No notable findings such as weight reduction			68
